Results as given in paper PMC11284787, “Ligand-Directed Labeling of the Adenosine A1 Receptor in Living Cells” (Journal of Medicinal Chemistry, 2024).
Read-outs that look alike come from different tables or passages of the source.

Columns and labels:
[1] = system: T1, endogenously expressed A1AR in DRG neurons; assay: Live-cell confocal imaging of dorsal root ganglion (DRG) neurons; assay type: cell-based, rat
T1 construct: supporting the potential of the probe for selectively labeling endogenously expressed A1ARs; from tissue; host or cells: primary dorsal root ganglion neurons from adult male Sprague-Dawley rats
Text: Finally, we evaluated the utility of ligand-directed probe 11 to selectively label and visualize the localization and distribution of endogenously expressed A1AR in a physiologically relevant system. Studies have shown that activation of A1ARs expressed on peripheral nociceptive neurons produces analgesic effects,[14],[17],[71] thereby supporting the clinical potential of targeting the A1ARs for the treatment of neuropathic pain. Dorsal root ganglion (DRG) neurons are sensory cells involved in the transmission of pain and they are reported to express the A1AR[72]−[75] along with its cognate adenosine A2AAR[76]−[78] and A3AR[74],[79] receptor subtypes.
Figure 9 Live-cell confocal imaging of dorsal root ganglion (DRG) neurons labeled with SulfoCy5 by ligand-directed chemistry using probe 11 (250 nM). […] Left-hand side frames represent the SulfoCy5 channel, middle frames represent brightfield and right-hand side frames represent merged images from both channels. Images are representative of images acquired in four independent experiments. Scale bar: 10 μm. […]
plates (Nunc Lab-Tek, Thermo Fischer Scientific), pre-coated with Poly-D-Lysine, at 20,000 cells per well in DMEM/10% FCS. 24 h post seeding, cells were transiently transfected with human SNAP-A1. Transient transfections were carried out following manufacturer’s protocol: used FuGENE (Promega) HD at 3:1 ratio of reagent to cDNA with a total of 300 ng cDNA per well. Transfection solutions were made up in Gibco Opti-MEM (Thermo Fischer Scientific), incubated at RT for 5 min and added as 11 µL per well. Cells were incubated for additional 24 h at 37 OC, 5% CO2. Transient Transfection of NanoLuc-tagged human A 2AAR in HEK293T cell line was carried out as follows: 72 h prior to the experiment cells were removed from a confluent T75 flask and centrifuged. The pellet of cells was resuspended in 10 mL of fresh complete DMEM. […]

NL-rA1AR = target: T2, NL-rA1AR (Rattus norvegicus, UniProt P25099); assay: NanoBRET competition ligand-binding assay (CA200645 tracer), NL-rA1AR
T2 construct: expressed in transfected cells
T2 sequence (P25099 1-326): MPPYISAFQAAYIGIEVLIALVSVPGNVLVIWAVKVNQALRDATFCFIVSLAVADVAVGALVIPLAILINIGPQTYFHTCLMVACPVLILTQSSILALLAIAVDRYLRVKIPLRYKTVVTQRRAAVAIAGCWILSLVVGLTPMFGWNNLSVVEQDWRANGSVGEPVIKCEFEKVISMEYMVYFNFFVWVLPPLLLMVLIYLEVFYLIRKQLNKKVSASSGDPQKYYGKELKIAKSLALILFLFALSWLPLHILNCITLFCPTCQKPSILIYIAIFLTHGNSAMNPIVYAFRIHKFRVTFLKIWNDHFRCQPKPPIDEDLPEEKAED

SMILES	labeling of live DRG neurons ([1]; 250 nM, 2 h, adult Sprague-Dawley rat DRG)	labeling of DRG neurons after pretreatment with ZM241385 ([1]; 10 μM A2AAR-selective antagonist ZM241385)	fluorescence in DRG neurons after pretreatment with DPCPX ([1]; 10 μM DPCPX pretreatment)	Ki (NL-rA1AR; CA200645 (25 nM) tracer, HEK293T cells, mean ± SEM, read-out: affinity values pKi, NL-rA1AR (converted))	Ki (NL-rA1AR; supplementary CSV, read-out: AFFINITY (A1AR_rat) pKi (converted))
CCCCn1c(=O)c2[nH]c(C34CCC(C(=O)NCCNC(=O)CCNC(=O)c5ccc(OC(=O)CCCCC[N+]6=C(/C=C/C=C/C=C7/N(C)c8ccc(S(=O)(=O)O)cc8C7(C)C)C(C)(C)c7cc(S(=O)(=O)[O-])ccc76)c(F)c5)(CC3)CC4)nc2n(CCCC)c1=O [Compound 11, 1-(6-(4-((3-((2-(4-(1,3-Dibutyl-2,6-dioxo-2,3,6,7-tetrahydro-1H-purin-8-yl)bicyclo[2.2.2]octane-1-carboxamido)ethyl)amino)-3-oxopropyl)carbamoyl)-2-fluorophenoxy)-6-oxohexyl)-3,3-dimethyl-2-((1E,3E)-5-((E)-1,3,3-trimethyl-5-sulfoindolin-2-ylidene)penta-1,3-dien-1-yl)-3H-indol-1-ium-5-sulfonate]	SulfoCy5-labeling	did not prevent the SulfoCy5 labeling	negligible fluorescence signal		
CCCCn1c(=O)c2[nH]c(C34CCC(C(=O)NCCNC(=O)CCNC(=O)c5ccc(OC(=O)CCC(=O)NCCOCCOCCNC(=O)O[C@H]6CC/C=C/CCC6)c(F)c5)(CC3)CC4)nc2n(CCCC)c1=O [Compound 12, 4-((3-((2-(4-(1,3-Dibutyl-2,6-dioxo-2,3,6,7-tetrahydro-1H-purin-8-yl)bicyclo[2.2.2]octane-1-carboxamido)ethyl)amino)-3-oxopropyl)carbamoyl)-2-fluorophenyl (R,E)-1-(Cyclooct-4-en-1-yloxy)-1,12-dioxo-5,8-dioxa-2,11-diazapentadecan-15-oate]				10.2 nM	8.32 nM
